The text below walks through data of PubChem BioAssay (NCI).

The structures appear in SMILES notation. Where “and” joins values, the source holds several entries; their conditions need not be identical. Equal values may be shown once.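 A five-concentration, 48-hour dose response in 96-well plates underlies each endpoint, interpolated linearly between surrounding concentrations. Abbreviation: GI50, concentration required for 50% inhibition of growth. TGI marks complete inhibition of growth.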 Some results are limits rather than exact numbers.

Common to all, as to assay: NCI tumour cell line growth inhibition, 48 h
Assay [1] relates to NCI-H226 lung.
The test system of assay [2] is 786-0 renal.
For assay [3], the system named is SK-MEL-5 melanoma.
In assay [4] the test system is KM12 colon.
Assay [5] relates to DU-145 prostate.
In assay [6] the test system is RPMI-8226 leukemia.
Assay [7] relates to TK-10 renal.
The test system of assay [8] is IGROV1 ovarian.
The test system of assay [9] is OVCAR-5 ovarian.
Assay [10] concerns MDA-MB-435.

`NC(=O)c1ccc2nc(-c3ccc(Oc4ccc(Cl)cc4)cc3)[nH]c2c1`: the GI50 was 49.1 µM and 14 µM in assay [1]; 48 µM and 16.1 µM in [2]; 28.7 µM and 7.98 µM in assay [3]; 65 µM and 13.9 µM in assay [4]; 35 µM and 13 µM in assay [5]; > 75 µM and 10.9 µM in assay [6]. In addition, the GI50 was 8.61 µM and 16.4 µM in assay [7]; 30.9 µM and 15.9 µM in assay [8]; > 75 µM and 18.6 µM in assay [9]; 34.4 µM and 14.5 µM in assay [10]. Also, the TGI in assay [1] is 75 µM and 57.6 µM; in assay [2], 75 µM and 39.4 µM; in assay [3] it was 75 µM and 23.7 µM; in assay [4] it was 75 µM and 31.3 µM; in assay [5] it was 75 µM and 29.8 µM; in assay [6], > 75 µM and 37.6 µM. For the same compound, the TGI in assay [7] is 75 µM and 39.9 µM; in assay [8], 75 µM and 36.2 µM; in [9] it was > 75 µM and 36.8 µM; in assay [10], 75 µM and 31.2 µM.
In the case of `Cn1ccnc1C(=O)/C=C/c1ccccc1`, the GI50 in assay [1] is 3.24 µM; in assay [2] it was 4.34 µM; in assay [3], 2.92 µM; in assay [4], 3.06 µM; in assay [5], 2.8 µM; in assay [6], 2.91 µM. The GI50 in assay [7] was 5.83 µM; in assay [8], 2.66 µM; in assay [9], 13.7 µM; in assay [10] it was 3.21 µM. For the same compound, the TGI stood at 14.9 µM in assay [1]; 16.6 µM in assay [2]; 12.5 µM in assay [3]; 12.5 µM in [4]; 12.7 µM in assay [5]; 8.97 µM in assay [6]. Also, the TGI in [7] worked out at 19.1 µM; in assay [8] it was 14 µM; in assay [9] it was 27.8 µM; in assay [10], 10.2 µM.
In the case of `COc1ccc2c(c1)n([O-])c1ccccc1[n+]2=O`, the TGI in assay [1] is 91.4 µM and 91.6 µM; in assay [2], more than 100 µM; in [3] it was 98.5 µM and 39.8 µM; in [4], > 100 µM and 46.2 µM; in assay [5], more than 100 µM; in [6] it was 97.1 µM and > 100 µM. Further, the TGI in assay [7] is more than 100 µM; in [8], 19.1 µM; in assay [9] it was more than 100 µM; in assay [10], > 100 µM and 46.4 µM. For the same compound, the GI50 in assay [2] is 43 µM and 21.4 µM; in assay [5] it was 29.3 µM and 12.2 µM; in [10], 65.4 µM and 22.2 µM.
On to `COc1cc(OC)c(/C=C/c2cnc3ccccc3n2)c(OC)c1`, for which the TGI in assay [1], in assay [2], in assay [3], in assay [4], in assay [5] and in [6] was more than 10 µM each time. In addition, the TGI in assay [7], in assay [8], in assay [9] and in assay [10] was more than 10 µM each time.
Take `Fc1ccc(Nc2nc3nonc3nc2Nc2ccc(F)cc2)cc1`: the GI50 in assay [1] was 0.384 µM; in assay [2], 0.509 µM; in assay [3] it was 0.229 µM; in assay [4], 0.395 µM; in [5] it was 0.57 µM; in assay [6], 0.207 µM. In addition, the GI50 was 0.435 µM in assay [7], 0.57 µM in assay [8], 0.709 µM in assay [9] and 0.338 µM in assay [10]. Moreover, the TGI worked out at 13.9 µM in [1]; 8.48 µM in [2]; 0.702 µM in assay [3]; 10.6 µM in [4]; 15 µM in [5]; 0.697 µM in assay [6]. Besides, the TGI amounted to 6.74 µM in assay [7], 13.8 µM in assay [8], 13.8 µM in [9] and 3.61 µM in [10].
Consider `COc1ccc(/C(C#N)=C/c2ccc(OC)c(OC)c2)cc1`, for which the TGI in [1], in assay [2], in assay [3], in assay [4], in [5] and in assay [6] was more than 100 µM each time. Besides, the TGI in assay [7], in assay [8], in assay [9] and in assay [10] was more than 100 µM in each case.
Turning to `COc1cc(Nc2ccnc(NCCCNc3ccnc4cc(Cl)ccc34)n2)cc(OC)c1`, the GI50 in assay [1] is 2.5 µM; in [2], 1.59 µM; in [3] it was 1.51 µM; in assay [4] it was 2.92 µM; in [5] it was 3.62 µM; in assay [6], 1.56 µM. Also, the GI50 in [7] was 1.81 µM; in [8], 2.23 µM; in assay [9], 2.01 µM; in [10], 1.51 µM. In addition, the TGI in assay [1] came to 9.16 µM; in [2], 3.12 µM; in [3], 2.84 µM; in assay [4] it was 9.46 µM; in assay [5] it was 12.2 µM; in assay [6], 4.11 µM. Also, the TGI in assay [7] worked out at 3.63 µM; in assay [8], 5.73 µM; in assay [9], 6 µM; in assay [10], 2.88 µM.
Regarding `Nc1nc(-c2ccccc2)nc(N)c1N=O`, the GI50 in [1] was 4.87 µM; in assay [2] it was 13.2 µM; in assay [3], 8.21 µM; in assay [4] it was 4.58 µM; in assay [5] it was 9.5 µM; in assay [6], 17.9 µM. Further, the GI50 is 4.68 µM in [7], 11.8 µM in assay [8], 13.7 µM in [9] and 4.57 µM in [10]. Further, the TGI in assay [1] was 21.2 µM; in assay [2], 27.1 µM; in [3] it was 20.8 µM; in [4], 16.9 µM; in [5] it was 21.6 µM; in [6], 78.7 µM. Besides, the TGI in [7] was 14.8 µM; in assay [8], 54 µM; in assay [9], 26.8 µM; in assay [10], 51.9 µM.
For `O=C(NP(=O)(N1CC1)N1CC1)c1cc(I)ccc1I`, the TGI in assay [1], in [2], in assay [3], in [4], in assay [5] and in assay [6] was more than 100 µM throughout. Further, the TGI in [7], in [8], in [9] and in assay [10] was more than 100 µM each time.
